Experimental findings from patent publication US6218431A, “Substituted biphenyls” (Bayer Corporation, priority 1997, dated 2001) are described below.

For one assay, the target named is T1, glucagon receptor (Homo sapiens, UniProt P47871).
T1 construct: expressed in transfected cells; host or cells: Chinese Hamster Ovary cells (CHO-HGR), membranes
T1 sequence (P47871 26-477): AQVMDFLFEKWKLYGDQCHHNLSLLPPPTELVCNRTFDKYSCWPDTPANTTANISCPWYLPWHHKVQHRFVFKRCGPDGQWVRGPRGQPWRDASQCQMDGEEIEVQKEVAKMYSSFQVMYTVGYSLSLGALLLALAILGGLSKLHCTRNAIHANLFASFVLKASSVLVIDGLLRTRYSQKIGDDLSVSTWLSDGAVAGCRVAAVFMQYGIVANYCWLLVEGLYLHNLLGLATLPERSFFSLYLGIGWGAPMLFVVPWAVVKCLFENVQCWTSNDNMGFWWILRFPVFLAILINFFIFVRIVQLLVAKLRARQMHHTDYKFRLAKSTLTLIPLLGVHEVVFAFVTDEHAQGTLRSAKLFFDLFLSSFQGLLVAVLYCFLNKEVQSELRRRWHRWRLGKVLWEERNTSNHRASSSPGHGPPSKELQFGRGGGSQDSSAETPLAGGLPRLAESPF
Nature of the assay: glucagon receptor binding assay (125I-glucagon, CHO-HGR membranes). The note with it: 20 μM; reported where 20 μM did not reduce glucagon binding by 50%. The method, then:
The affinity for the glucagon receptor of compounds of the present invention is determined by the glucagon receptor binding assay. Membranes were prepared from Chinese Hamster Ovary cells expressing the glucagon receptor (CHO-HGR) by scraping the cells into hypotonic lysis buffer (10 mM Tris, pH 7.4, 2 mM EDTA, 5 mM MgCl2 and 1 mM PMSF) and subjecting the material to Polytron homogenization. Nuclei were removed by a 15-min 800×g centrifugation step conducted at 4° C. Membranes containing the receptor were collected by centrifugation at 15,000×gfor 15 min at 4° C. The membranes were washed once in lysis buffer and suspended in 0.25 M sucrose, 10 mM Tris, 5 mM EDTA, pH 7.4. The membranes were used in ligand binding studies as reported (Yoo-Warren, H., Willse, A. G., Hancock, N., Hull, J., McCaleb, M., and Livingston, J. Regulation of Rat Glucagon Receptor Expression. Biochem. Biophysical Res. Commun. 1994, 205, 347-353). In brief, 10 ug of membrane protein was incubated in 130 μl of binding buffer that consisted of 20 mM Tris, […], 1 mM EDTA, 1 mg/ml BSA, and 1 mg/ml bacitracin. The membrane suspension was placed in each well of a 96-well filtration plate (glass fiber type C, Millipore). […] Following the addition of test compound, 50 μl of ^125 I-glucagon (9 fmol) (NEN) was added to each well. Control wells contained membranes, 0.5% DMSO (solvent for test compounds), radiolabeled glucagon without and with excess native glucagon (1 μM) to establish nonspecific binding. The plates were incubated for 60 min at room temperature, and then filtered on a Mllipore vacuum apparatus. Following a wash step with ice-cold PBS/0.1% BSA, the filters were punched into test tubes, and the membrane bound radioactivity was determined.
With `CC(C)c1nc(C(C)C)c(CN2CCCC2)c(-c2ccc(F)cc2)c1CO` [Example 71, 2,6-Diisopropyl-3-hydroxymethyl-4-(4-fluorophenyl)-5-(pyrrolindino-methyl)pyridine], the inhibition at 20 µM came to 46.3%.

Regarding `CCCCCc1c(C(C)C)nc(C(C)C)c(CN(C)C)c1-c1ccc(F)cc1` [Example 122, 2,6-Diisopropyl-3-(dimethylamino)methyl-4-(4-fluorophenyl)-5-pentyl-pyridine], the inhibition at 20 µM was determined as 7.54%.

`CCCC=Cc1c(C(C)C)nc(C(C)C)c(CO)c1-c1ccc(Cl)c(Cl)c1` [Example 149, 2,6-Diisopropyl3-hydroxymethyl-4-(3,4-dichlorophenyl)-5-(pent-1-enyl)pyridine] yielded an inhibition at 20 µM of 39%.

In turn, `CC(C)=Cc1c(C)nc(C)c(CO)c1-c1ccccc1` [Example 2] showed an inhibition at 20 µM of 2.73%.

`CCc1nc(CC)c(CO)c(-c2ccccc2)c1C=C(C)C` [Example 5] came in with an inhibition at 20 µM of 12.4%.

`CC(C)c1nc(C(C)C)c(Cn2ccnc2)c(-c2ccc(F)cc2)c1CO` [Example 76, 2,6-Diisopropyl-3-hydroxymethyl-4-(4-fluorophenyl)-5-(imidazol-1-yl)-methylpyridine] yielded an inhibition at 20 µM of 5.18%.

The compound `CCCCCc1c(C(C)C)nc(C(C)C)c(CO)c1-c1ccc(C(C)C)cc1` [Example 134, 2,6-Diisopropyl-3-hydroxymethyl-4-(4-isopropylphenyl)-5-pentylpyridine] gave an inhibition at 20 µM of 34.4%.

The compound `CCCCCc1c(C(C)C)nc(C(C)C)c(CO)c1-c1ccc(OC)cc1` [Example 169, 2,6-Diisopropyl-3-hydroxymethyl-4-(4-methoxyphenyl)-5-pentyl-pyridine] registered an inhibition at 20 µM of 37.1%.

`CCCC=Cc1c(C(C)C)nc(C(C)C)c(CO)c1-c1ccc(C(C)C)cc1` [Example 133, 2,6-Diisopropyl-3-hydroxymethyl-4-(4-isopropylphenyl)-5-(pent-1-enyl)pyridine]: the inhibition at 20 µM came to 35.5%.

`CC(C)c1nc(C(C)C)c(CN2CCN(c3ccccc3)CC2)c(-c2ccc(F)cc2)c1CO` [Example 75, 2,6-Diisopropyl-3-hydroxymethyl-4-(4-fluorophenyl)-5-[(4-phenylpiperazin-1-yl)methyl]pyridine] displayed an inhibition at 20 µM of 34.2%.

As for `CCCCCc1c(C(C)C)nc(C(C)C)c(CNC)c1-c1ccc(F)cc1` [Example 120, 2,6-Diisopropyl-3-methylaminomethyl-4-(4-fluorophenyl)-5-pentyl-pyridine], testing at 20 µM gave an inhibition of 37%.

Staying with this assay, now noted: 125I-glucagon; 60 min at room temperature; read-out: IC50.
As for `CC(C)c1nc2c(c(-c3ccc(F)cc3)c1C(C)O)CCCC2(C)C` (centres unmarked) [Example 231, 2-Isopropyl-3-(1-hydroxyethyl)-4-(4-fluorophenyl)-5,6,7,8-tetrahydro-8,8-dimethylquinoline], the IC50 amounted to 0.5 µM.

Turning to `CCCCCc1c(CCc2ccccc2)nc(C(C)C)c(CO)c1-c1ccc(F)cc1` [Example 227, 2-Isopropyl-3-hydroxymethyl-4-(4-fluorophenyl)-5-pentyl-6-(2-phenylethyl)pyridine], the IC50 is 1.3 µM.

Regarding `CCCCCc1c(C(C)C)cc(C(C)C)c(C(C)O)c1-c1ccc(F)cc1O` (centres unmarked) [Example 247, 3,5-Diisopropyl-2-(1-hydroxyethyl)-6-pentyl-4'-fluoro-2'-hydroxy-1,1'-biphenyl], the IC50 is 0.006 µM.

`CC(C)c1nc(C(C)C)c(CSc2ccc([N+](=O)[O-])cc2)c(-c2ccc(F)cc2)c1CO` [Example 68, 2,6-Diisopropyl-3-hydroxymethyl-4-(4-fluorophenyl)-5-[(4-nitrophenyl)-thio]methylpyridine]: the half-maximal inhibitory concentration (IC50) came out at 13 µM.

As to `CCCCCc1c(CCC(C)C)nc(C(C)C)c(CO)c1-c1ccc(F)cc1` [Example 229, 2-Isopropyl-3-hydroxymethyl-4-(4-fluorophenyl)-5-pentyl-6-(3-methylbutyl)pyridine], the concentration for half-maximal inhibition (IC50) was determined as 0.8 µM.

Turning to `CCCCCc1c(C(C)C)cc(C(C)C)c(C(C)O)c1-c1ccc(F)cc1` (centres unmarked) [Example 191, 3,5-Diisopropyl-2-(1-hydroxyethyl)-6-pentyl-4'-fluoro-1,1'-biphenyl], the concentration for half-maximal inhibition (IC50) turned out to be 0.13 µM.

For orientation: inhibition means the drop in the measured response relative to a control, in per cent. A lower inhibition goes with a response near the control. As a reminder, the IC50 is the point on the concentration scale where inhibition reaches its midpoint.
